Laboratory results as given in patent US8440614B2, “Polymer microspheres/nanospheres and encapsulating therapeutic proteins therein” (priority 2000, dated 2013).

Assays:
[1] = test system: chronic diabetic BB/W or male rats; test: In vivo release of insulin: glucose concentration in diabetic rats; conditions: for Effect on glucose levels (in words): bled 0.5 to 16 hrs after treatment
Experimental: A preliminary study with SCCNC polymer nanoencapsulated insulin was conducted in diabetic rats. Three groups of four chronic diabetic BB/W or male rats were used to evaluate efficacy on nanoencapsulated insulin (MS-29). One group [A] was given 2 ml of the test formulation (MS-29) using the standard gavage method. The second group [B] received oral non-encapsulated insulin, administered by gavage at the concentration based on the animals' day of diabetes onset. A third group [C] received injected insulin (PZI, Eli Lilly) therapy at the dose consistent with their day of onset of diabetes. The animals were bled prior to treatment and at 0.5, 1, 2, 4, 8, and 16 hrs after treatment.

[2] = Antigenicity by sandwich-type capture ELISA after SCCNC treatment; assay type: binding
Experimental: Experiments were performed to encapsulate tetanus toxoid (TT) and diphtheria toxoid (DT) vaccine antigens in 50:50 PLGA polymer microspheres formed by SCCNC carbon dioxide and propane. In these tests, DT and TT were each separately treated with supercritical carbon dioxide with 10% (v/v) cosolvent ethanol, and near-critical propane in the presence of PLGA. The pressure and temperature were around 3,000 psig and 30-35° C. respectively. The protein and antigenicity activities were performed by micro BCA assay and a sandwich-type capture ELISA [Gupta, R. K., Siber, G. R., Alonso, M. J. and Langer, R., in Modern Approaches To New Vaccines Including Prevention of AIDS. Ed. by Ginsberg, H. S., Brown, F., Chanock, R. M. and Lerner, R. A. Cold Spring Harbor Laboratory, Press, 1993] assay.

[3] = aqueous protein; cited from earlier work
[4] = treated with SCCNC carbon dioxide/ethanol mixtures

Substance	Percent Change in Glucose Concentration ([1]; 0.5 hr post-treatment)	Percent Change in Glucose Concentration ([1]; 1 hr post-treatment) [%]	Percent Change in Glucose Concentration ([1]; 2 hr post-treatment) [%]	Percent Change in Glucose Concentration ([1]; 4 hr post-treatment)	Percent Change in Glucose Concentration ([1]; 8 hr post-treatment)	Percent Change in Glucose Concentration ([1]; 16 hr post-treatment)	Effect on glucose levels (in words) [1]	Antigenicity after treatment (in words) [2, 4]	Antigenicity after treatment (in words) ([2]; treated with near-critical propane)	pH levels at which the toxoid will denature [3]	ELISA (Lf/mL), antigenicity ([2]; toxoid in PLGA microspheres formed by different SCCNC, around 3,000 psig, 30-35° C.) [Lf/mL]
Injected Insulin: injected insulin (PZI, Eli Lilly), positive control	−47.4%	−62.7	−71.8	−37.9%	−48.5%	−37.6%	statistical decrease in glucose levels at all times measured post treatment				
diphtheria toxoid								lost most of their antigenicity	did little damage	below 5.0	
4: Tetanus toxoid, Control [Sample 4]											9.0
Oral Insulin: oral non-encapsulated insulin, administered by gavage	+2.9%	−4.6	−24.4	+2.8%	+7.5%	+47.3%	only showed a statistical decrease in the level of glucose at one time point, 2 hours				
tetanus toxoid: tetanus toxoid (TT) vaccine antigen								lost most of their antigenicity		below 5.0	
